Where a SMILES comes first, the peptide text is derived from it. [ ]: non-standard residue; d: D form. The star is where a group is joined. NHCH2CH2OH = OCCN*; For = O=C*

Data set [1] is described as follows: H+/Na+ transport assay of bead-derived peptides (one-point).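 Also: relative to parent gramicidin A activity set to 1.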 Format: biochemical. Also noted: key: relative activity; mean of two control wells = 1.00. The settings on record: bead-derived peptide solution, EYPC/EYPG LUVs. The essentials: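 Pyranine (1.0 mM)-loaded LUVs containing egg yolk phosphatidylglycerol were prepared by film hydration, sonication and extrusion, then mixed with diluted bead-derived peptide in 96-well format and vortexed 30 min at room temperature. Fluorescence was normalized between untreated LUVs (0%) and Triton X-100 lysis (100%).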

The conditions of data set [2]: cell viability/%. In outline: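 P388 cells at 1 × 10^4 cells/mL (final) were exposed to library peptides (stocks diluted 250-fold in RPMI1640/10% FBS) for 92 h at 37 °C, 5% CO2. Viable cells were counted by WST-1/1-methoxy PMS (4 h), absorbance 415 nm, and expressed as cell viability (%).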
The test system of data set [3] is Streptococcus pyogenes SSI-9. The data set is described as follows: Antibacterial activity assay of bead-derived peptides (three concentrations). Also noted: key: +++: inhibition by the 640-fold diluted peptide solution; ++: inhibition by the 160-fold diluted solution; +: inhibition by the 40-fold diluted solution; -: no inhibition. Format: cell-based. The settings on record: S. pyogenes, bead-derived peptide solution, three concentrations. The essentials: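 Undiluted, 4-fold and 16-fold DMSO-diluted peptide stocks; S. pyogenes SSI-9, 2 × 10^5 CFU, cation-adjusted MHB (50 mg/L Ca2+, 25 mg/L Mg2+) + 5% laked horse blood; 37 °C, 18 h; readout = cell pellet visible or not.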

Take `CC(C)C[C@@H](NC(=O)[C@H](Cc1c[nH]c2ccccc12)NC(=O)[C@@H](CC(C)C)NC(=O)[C@H](Cc1c[nH]c2ccccc12)NC(=O)[C@H](NC(=O)[C@H](Cc1c[nH]c2ccccc12)NC(=O)[C@H](NC(=O)[C@@H](NC(=O)[C@H](NC(=O)[C@H](C)NC(=O)[C@H](NC(=O)[C@H](C)NC(=O)CNC(=O)[C@@H](NC=O)C(C)C)C(C)C)C(C)C)C(C)C)C(C)C)[C@H](C)O)C(=O)N[C@@H](Cc1c[nH]c2ccccc12)C(=O)NCCO` [compound 10042] (For-VGA[dV]A[dV]V[dV]W[dT]W[dL]W[dL]W-NHCH2CH2OH): the “H+/Na+ transport activity normalized against the value of 1 (1.00)” value (from here on “H+/Na+ transport activity normalized”) in data set [1] is 1.06. The molecule also gave a viability in data set [2] of 100%. Besides, the antibacterial activity entry in data set [3] is recorded as “-”.

For `CC(C)C[C@@H](NC(=O)[C@H](C)NC(=O)[C@H](NC(=O)[C@H](C)NC(=O)CNC(=O)[C@@H](NC=O)C(C)C)C(C)C)C(=O)N[C@H](C(=O)N[C@H](CC(C)C)C(=O)N[C@@H](Cc1c[nH]c2ccccc12)C(=O)N[C@H](CC(C)C)C(=O)N[C@@H](Cc1c[nH]c2ccccc12)C(=O)N[C@@H](C(=O)N[C@@H](Cc1c[nH]c2ccccc12)C(=O)N[C@@H](C(=O)N[C@@H](Cc1c[nH]c2ccccc12)C(=O)NCCO)C(C)C)[C@H](C)O)C(C)C` [compound 2117] (For-VGA[dV]A[dL]V[dL]W[dL]W[dT]W[dV]W-NHCH2CH2OH), the “H+/Na+ transport activity normalized” value in data set [1] came to 1.15. In data set [2], this molecule registered a viability of 100%. In addition, the antibacterial activity result in data set [3] was “+”.

As to `CC(C)C[C@@H](NC(=O)[C@H](C)NC(=O)CNC(=O)[C@@H](NC=O)C(C)C)C(=O)N[C@@H](C)C(=O)N[C@H](CC(C)C)C(=O)N[C@H](C(=O)N[C@H](CC(C)C)C(=O)N[C@@H](Cc1c[nH]c2ccccc12)C(=O)N[C@@H](C(=O)N[C@@H](Cc1c[nH]c2ccccc12)C(=O)N[C@@H](C(=O)N[C@@H](Cc1c[nH]c2ccccc12)C(=O)N[C@H](CC(C)C)C(=O)N[C@@H](Cc1c[nH]c2ccccc12)C(=O)NCCO)[C@H](C)O)[C@H](C)O)C(C)C` [compound 3244] (For-VGA[dL]A[dL]V[dL]W[dT]W[dT]W[dL]W-NHCH2CH2OH), in data set [1], the “H+/Na+ transport activity normalized” value was 1.03. In data set [2], this molecule displayed a viability of 100%. Besides, the antibacterial activity result in data set [3] is “-”.

As for `CC(C)C[C@@H](NC(=O)[C@H](Cc1c[nH]c2ccccc12)NC(=O)[C@@H](CC(C)C)NC(=O)[C@H](Cc1c[nH]c2ccccc12)NC(=O)[C@H](NC(=O)[C@H](Cc1c[nH]c2ccccc12)NC(=O)[C@@H](CC(C)C)NC(=O)[C@@H](NC(=O)[C@H](NC(=O)[C@H](C)NC(=O)[C@H](NC(=O)[C@H](C)NC(=O)CNC(=O)[C@@H](NC=O)C(C)C)C(C)C)[C@H](C)O)C(C)C)C(C)C)C(=O)N[C@@H](Cc1c[nH]c2ccccc12)C(=O)NCCO` [compound 2085] (For-VGA[dV]A[dT]V[dL]W[dV]W[dL]W[dL]W-NHCH2CH2OH), the “H+/Na+ transport activity normalized” value in data set [1] was determined as 1.20. Besides, the viability in data set [2] came to 100%. The antibacterial activity result in data set [3] was “-”.

For the molecule `CC(C)C[C@@H](NC(=O)[C@H](Cc1c[nH]c2ccccc12)NC(=O)[C@@H](CC(C)C)NC(=O)[C@H](Cc1c[nH]c2ccccc12)NC(=O)[C@@H](CC(C)C)NC(=O)[C@H](Cc1c[nH]c2ccccc12)NC(=O)[C@H](NC(=O)[C@@H](NC(=O)[C@H](NC(=O)[C@H](C)NC(=O)[C@H](NC(=O)[C@H](C)NC(=O)CNC(=O)[C@@H](NC=O)C(C)C)C(C)C)[C@H](C)O)C(C)C)C(C)C)C(=O)N[C@@H](Cc1c[nH]c2ccccc12)C(=O)NCCO` [compound 13151] (For-VGA[dV]A[dT]V[dV]W[dL]W[dL]W[dL]W-NHCH2CH2OH), the “H+/Na+ transport activity normalized” value in data set [1] stood at 1.01. Also, the viability in data set [2] came out at 100%. In addition, in data set [3], the antibacterial activity entry was “-”.

In the case of `CC(C)C[C@@H](NC(=O)[C@H](C)NC(=O)[C@H](NC(=O)[C@H](C)NC(=O)CNC(=O)[C@@H](NC=O)C(C)C)C(C)C)C(=O)N[C@H](C(=O)N[C@@H](C(=O)N[C@@H](Cc1c[nH]c2ccccc12)C(=O)N[C@H](CC(C)C)C(=O)N[C@@H](Cc1c[nH]c2ccccc12)C(=O)N[C@H](CC(C)C)C(=O)N[C@@H](Cc1c[nH]c2ccccc12)C(=O)N[C@H](CC(C)C)C(=O)N[C@@H](Cc1c[nH]c2ccccc12)C(=O)NCCO)[C@H](C)O)C(C)C` [compound 3956] (For-VGA[dV]A[dL]V[dT]W[dL]W[dL]W[dL]W-NHCH2CH2OH), the “H+/Na+ transport activity normalized” value in data set [1] was 1.12. Besides, the viability in data set [2] was 100%. In addition, the antibacterial activity entry in data set [3] is recorded as “+”.

On to `CNC(=O)C[C@@H](NC(=O)[C@H](Cc1c[nH]c2ccccc12)NC(=O)[C@H](NC(=O)[C@H](Cc1c[nH]c2ccccc12)NC(=O)[C@H](NC(=O)[C@H](Cc1c[nH]c2ccccc12)NC(=O)[C@H](NC(=O)[C@@H](NC(=O)[C@@H](CC(C)C)NC(=O)[C@H](C)NC(=O)[C@H](NC(=O)[C@H](C)NC(=O)CNC(=O)[C@@H](NC=O)C(C)C)C(C)C)C(C)C)C(C)C)C(C)C)C(C)C)C(=O)N[C@@H](Cc1c[nH]c2ccccc12)C(=O)NCCO` [compound 2911] (For-VGA[dV]A[dL]V[dV]W[dV]W[dV]W[dD](NHMe)W-NHCH2CH2OH), for which the “H+/Na+ transport activity normalized” value in data set [1] is reported as 1.16. Besides, the viability in data set [2] is 100%. In addition, the antibacterial activity entry in data set [3] is given as “-”.

Regarding `CC(C)C[C@@H](NC(=O)[C@H](Cc1c[nH]c2ccccc12)NC(=O)[C@H](NC(=O)[C@@H](NC(=O)[C@H](NC(=O)[C@H](C)NC(=O)[C@H](NC(=O)[C@H](C)NC(=O)CNC(=O)[C@@H](NC=O)C(C)C)C(C)C)C(C)C)C(C)C)C(C)C)C(=O)N[C@@H](Cc1c[nH]c2ccccc12)C(=O)N[C@H](CC(C)C)C(=O)N[C@@H](Cc1c[nH]c2ccccc12)C(=O)N[C@@H](C(=O)N[C@@H](Cc1c[nH]c2ccccc12)C(=O)NCCO)[C@H](C)O` [compound 4603] (For-VGA[dV]A[dV]V[dV]W[dL]W[dL]W[dT]W-NHCH2CH2OH), the “H+/Na+ transport activity normalized” value in data set [1] stood at 1.12. In addition, the viability in data set [2] stood at 100%. Besides, the antibacterial activity entry in data set [3] is “++”.

In the case of `CC(C)C[C@@H](NC(=O)[C@H](C)NC(=O)[C@H](NC(=O)[C@H](C)NC(=O)CNC(=O)[C@@H](NC=O)C(C)C)C(C)C)C(=O)N[C@H](C(=O)N[C@@H](C(=O)N[C@@H](Cc1c[nH]c2ccccc12)C(=O)N[C@H](CC(C)C)C(=O)N[C@@H](Cc1c[nH]c2ccccc12)C(=O)N[C@@H](C(=O)N[C@@H](Cc1c[nH]c2ccccc12)C(=O)N[C@@H](C(=O)N[C@@H](Cc1c[nH]c2ccccc12)C(=O)NCCO)[C@H](C)O)C(C)C)[C@H](C)O)C(C)C` [compound 3328] (For-VGA[dV]A[dL]V[dT]W[dL]W[dV]W[dT]W-NHCH2CH2OH), in data set [1], the “H+/Na+ transport activity normalized” value worked out at 1.08. In addition, the viability in data set [2] was determined as 100%. The antibacterial activity entry in data set [3] was “-”.

Consider `CNC(=O)C[C@@H](NC(=O)[C@@H](NC(=O)[C@H](NC(=O)[C@H](C)NC(=O)[C@@H](CC(C)C)NC(=O)[C@H](C)NC(=O)CNC(=O)[C@@H](NC=O)C(C)C)C(C)C)C(C)C)C(=O)N[C@@H](Cc1c[nH]c2ccccc12)C(=O)N[C@@H](C(=O)N[C@@H](Cc1c[nH]c2ccccc12)C(=O)N[C@H](CC(C)C)C(=O)N[C@@H](Cc1c[nH]c2ccccc12)C(=O)N[C@H](CC(C)C)C(=O)N[C@@H](Cc1c[nH]c2ccccc12)C(=O)NCCO)C(C)C` [compound 2118] (For-VGA[dL]A[dV]V[dD](NHMe)W[dV]W[dL]W[dL]W-NHCH2CH2OH), for which the “H+/Na+ transport activity normalized” value in data set [1] was 1.26. For the same molecule, in data set [2], the viability is 100%. In addition, the antibacterial activity result in data set [3] was “-”.

For the molecule `CNC(=O)C[C@@H](NC(=O)[C@H](Cc1c[nH]c2ccccc12)NC(=O)[C@H](NC(=O)[C@@H](NC(=O)[C@@H](CC(C)C)NC(=O)[C@H](C)NC(=O)[C@@H](CC(C)C)NC(=O)[C@H](C)NC(=O)CNC(=O)[C@@H](NC=O)C(C)C)C(C)C)C(C)C)C(=O)N[C@@H](Cc1c[nH]c2ccccc12)C(=O)N[C@@H](C(=O)N[C@@H](Cc1c[nH]c2ccccc12)C(=O)N[C@@H](C(=O)N[C@@H](Cc1c[nH]c2ccccc12)C(=O)NCCO)C(C)C)C(C)C` [compound 5255] (For-VGA[dL]A[dL]V[dV]W[dD](NHMe)W[dV]W[dV]W-NHCH2CH2OH), the “H+/Na+ transport activity normalized” value in data set [1] came out at 1.25. Moreover, in data set [2], the viability is 100%. Also, in data set [3], the antibacterial activity entry is on record as “-”.

On to `CC(C)[C@H](NC=O)C(=O)NCC(=O)N[C@@H](C)C(=O)N[C@@H](C(=O)N[C@@H](C)C(=O)N[C@@H](C(=O)N[C@H](C(=O)N[C@@H](C(=O)N[C@@H](Cc1c[nH]c2ccccc12)C(=O)N[C@@H](C(=O)N[C@@H](Cc1c[nH]c2ccccc12)C(=O)N[C@@H](C(=O)N[C@@H](Cc1c[nH]c2ccccc12)C(=O)N[C@@H](C(=O)N[C@@H](Cc1c[nH]c2ccccc12)C(=O)NCCO)C(C)C)C(C)C)C(C)C)C(C)C)C(C)C)C(C)C)C(C)C` [compound 4223] (For-VGA[dV]A[dV]V[dV]W[dV]W[dV]W[dV]W-NHCH2CH2OH), for which, in data set [1], the “H+/Na+ transport activity normalized” value is 1.09. This molecule returned a viability in data set [2] of 95.6%. Besides, the antibacterial activity entry in data set [3] is “+”.
